From patent EP1487840B1 (Pfizer Italia S.r.l., priority 2002, dated 2003)
Where a name gives a salt, the structure may show the parent alone.

Assays:
[1] = pH 1.2
Experimental: (§1) The pH is adjusted to the final value with NaOH 1N). An excess solid was put in glass flasks in the presence of the appropriate dissolution media and the suspensions were shaken at room temperature for 24 hours. Samples were withdrawn after 15, 30, 45, 60 min and 24 hours, filtered and analyzed by means of HPLC assay.

[2] = relative to CPT-11; cited from earlier work
physchem = conditions: thermodynamic from solid, room temperature; for solubility thermodynamic at 24 h: Irinotecan hydrocholoride concentration; for solubility: no time given
Experimental: as §1

For CCc1c2c(nc3ccc(OC(=O)N4CCC(N5CCCCC5)CC4)cc13)-c1cc3c(c(=O)n1C2)COC(=O)[C@]3(O)CC [Form c, (S)-4,11-Diethyl-3,4,12,14-tetrahydro-4-hydroxy-3,14=dioxo-1 H-pyrano[3',4':6,7]-indolizino[1,2-b]quinolin-9-yl [1,4'-bipiperidine]-1'-carboxylate (irinotecan) hydrochloride], the “more soluble with respect to Form b” value [1] was 2 orders of magnitude.

For CCc1c2c(nc3ccc(O)cc13)-c1cc3c(c(=O)n1C2)COC(=O)[C@]3(O)CC [SN-38, 7-ethyl-10-hydroxy 20 (S) camptothecin], the “more cytotoxic than CPT-11” value [2] is given as 100 fold.

With CCc1c2c(nc3ccc(OC(=O)N4CCC(N5CCCCC5)CC4)cc13)-c1cc3c(c(=O)n1C2)COC(=O)[C@]3(O)CC [Form b, (S) -4,11-Diethyl-3,4,12,14-tetrahydro-4-hydroxy-3,14-dioxo-1 H-pyrano[3',4':6,7]-indolizino[1,2-b]quinolin-9-yl[1,4'-bipiperidine]-1'-carboxylate hydrochloride] the solubility thermodynamic at 24 h (physchem; deionized water, water, a = deionized water) was 11200 µg/mL, the solubility (physchem; deionized water, water, Water solubility, in water) was ~10000 µg/mL and the solubility (physchem; lactic acid buffer of CAMPTOSAR INJECTION, pH 3.5, aqueous buffer, solubility) was 10000 µg/mL. The solubility thermodynamic at 24 h (physchem; pH 1.2 buffer, pH 1.2, simulated gastric fluid, b = pH 1.2 buffer) was 260 µg/mL and the solubility thermodynamic (physchem; pH 3.5, aqueous buffer, equilibrium solubility, pH value of about 3.5) was < 20000 µg/mL.
